The text below walks through data of US9387221B2, “SDF-1 binding nucleic acids and the use thereof in cancer treatment” (NOXXON Pharma AG, priority 2010, dated 2016).

{PEG40k} = 40 kDa polyethylene glycol

One series deals with Human CXCR7. As to the kind of experiment: CXCR7 β-arrestin complementation assay (PathHunter), CHO cells. It is filed as cell-based. The note with it: 10 nM human SDF-1, 90 minutes; read-out: IC50, CXCR7 activation (β-galactosidase). How it is done: Besides CXCR4, SDF-1 also binds to the chemokine receptor CXCR7. The inhibitory potential of SDF-1-binding Spiegelmer NOX-A12 towards CXCR7 was tested in a complementation assay with CHO cells stably expressing CXCR7 and β-arrestin both fused to a fragment of β-galactosidase (PathHunter™—β-arrestin assay, DiscoveRX, CA, USA). Upon SDF-1 binding β-arrestin complexed with CXCR7 and thus led to complementation and activation of the β-galactosidase which was measured with a chemiluminescence substrate.
PathHunter eXpress CHO-K1 Human CXCR7 β-arrestin cells were plated for 48 hours in OCC2 Medium and stimulated with 10 nM SDF-1 and various concentrations of SDF-1-binding Spiegelmer NOX-A12 for 90 minutes. Following stimulation, signal was detected using the PathHUnter Detection Kit and the manufacturer's recommended protocol (DiscoveRX, CA, USA).

A further series concerns the target human SDF-1α (Homo sapiens, UniProt P48061). As to the kind of experiment: Surface plasmon resonance measurement (Biacore 2000). It is filed as binding. The note with it: Spiegelmer (L-RNA), 37° C. As for the experimental part: The Biacore 2000 instrument (Biacore AB, Uppsala, Sweden) was used to analyze binding of Spiegelmers to human SDF-1α. When coupling of human SDF-1α was to be achieved via amine groups, human SDF-1α was dialyzed against water for 1-2 h (Millipore VSWP mixed cellulose esters; pore size, […]) to remove interfering amines. CM4 sensor chips (Biacore AB, Uppsala, Sweden) were activated before protein coupling by a 35-μl injection of a 1:1 dilution of 0.4 M NHS and 0.1 M EDC at a flow of 5 μl/min. Human MCP-1 or human SDF-1α was then injected in concentrations of 0.1-1.5 μg/ml at a flow of 2 μl/min until the instrument's response was in the range of 1000-2000 RU (relative units). Unreacted NHS esters were deactivated by injection of 35 μl ethanolamine hydrochloride solution (pH 8.5) at a flow of 5 μl/min. The sensor chip was primed twice with binding buffer and equilibrated at 10 μl/min for 1-2 hours until the baseline appeared stable. For all proteins, kinetic parameters and dissociation constants were evaluated by a series of Spiegelmer injections at concentrations of 1000, 500, 250, 125, 62.5, 31.25, and 0 nM in selection buffer (Tris-HCl, 20 mM; NaCl, 137 mM; KCl, 5 mM; CaCl2, 1 mM; MgCl2, 1 mM; Tween20, 0.1% [w/v]; pH 7.4). In all experiments, the analysis was performed at 37° C. using the Kinject command defining an association time of 180 and a dissociation time of 360 seconds at a flow of 10 μl/min. Data analysis and calculation of dissociation constants (KD) was done with the BIAevaluation 3.0 software (BIACORE AB, Uppsala, Sweden) using the Langmuir 1:1 stochiometric fitting algorithm.
(In SPR one partner is held on a chip, and binding of the other changes the refractive index at the surface.)

Series [1] concerns SDF-1 dose-dependent adhesion of Jurkat cells to fibronectin. As to the kind of experiment: Adhesion of Jurkat cells to fibronectin. It is filed as cell-based, human. The note with it: SDF-1 plus increasing concentrations of Spiegelmer. How it is done: The T cell leukemia Jurkat (ACC 282) were purchased from the DSMZ were maintained in RPMI medium 1640 GlutaMAX (Invitrogen) supplemented with 10% FBS (Biochrom) and penicillin-streptomycin. For the adhesion experiments 96-well culture plates were incubated with 10 μg/mL human fibronectin (R&D systems) in PBS for 2 hours at 37° C. […] The wells were then washed with RPMI medium. Jurkat cells from logarithmic growth phase were washed with RPMI medium (+0.1% BSA) and incubated with various concentrations of human SDF-1 (R&D systems) and NOX-A12 for 15 minutes at 37° C. NOX-A12 and SDF-1 were preincubated for 30 minutes. lx 105 stimulated Jurkat cells were seeded to the Fibronectin-coated 96-well plates and incubated for 30 minutes. The plates were then washed five times with RPMI medium. Attached cells were quantified by using Cell Titer Glo Reagent (Promega). Therefor, 50 μL RPMI medium was added to each well, followed by 50 μL of Cell Titer Glo Reagent. The plates were mixed for two minutes, followed by incubation at room temperature for 10 minutes. Cell number was quantified by relative luminescence signal.

In another series the target is SDF-1 (Homo sapiens, UniProt P48061). As to the kind of experiment: Inhibition of SDF-1-induced chemotaxis, Nalm-6 cells. It is filed as cell-based. The note with it: 0.3 nM human SDF-1. As for the experimental part: The human T cell leukemia cell line Jurkat, the human leukemic monocyte lymphoma cell line U937, the human pre-B cell leukemia cell line BV-173 and human pre-B ALL cell line Nalm-6 express CXCR4. […] All cells used were obtained from the DSMZ (Braunschweig). All cell lines were cultivated at 37° C. and 5% CO2 in RPMI 1640 medium with Glutamax (Invitrogen, Karlsruhe, Germany) which contains 10% fetal bovine serum, 100 units/ml penicillin and 100 μg/ml streptomycin (Invitrogen, Karlsruhe, Germany). One day before the experiment, cells were seeded in a new T175 flask with a density of 0.3×10^6/ml (Jurkat, U937, BV-173) or 0.75×10^6/ml (Nalm-6), respectively.
For the experiment, cells were centrifuged (5 min at 300 g), resuspended, counted and washed once with 15 ml HBH (Hanks balanced salt solution containing 1 mg/ml bovine serum albumin and 20 mM HEPES; Invitrogen, Karlsruhe, Germany). Then the cells were resuspended at 1.33×10^6/ml (Jurkat, U937, BV-173) or 2.67×10^6/ml (Nalm-6), respectively. […]
For evaluation, fluorescence values were corrected for background fluorescence (no cells in well). Then the difference between experimental conditions with and without SDF-1 was calculated. The value for the sample without Spiegelmer (SDF-1 only) was set 100% and the values for the samples with Spiegelmer were calculated as percent of this. […]

Sequence of SDF-1 (P48061 22-89): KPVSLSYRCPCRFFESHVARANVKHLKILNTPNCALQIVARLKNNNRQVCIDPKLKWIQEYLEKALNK
Sequence of human SDF-1α (P48061 22-89): as above

For orientation: IC50 means the concentration at which inhibition is half-maximal. What is called Kd is the concentration at which binding is half-saturated. For the substance “5′-40 kDa-PEG-GCGUGGUGUGAUCUAGAUGUAUUGGCUGAUCCUAGUCAGGUACGC (5' {PEG40k}, sugars by position and backbone not given here) [NOX-A12]”, in the series with Human CXCR7, the IC50 worked out at 5.4 nM. In the series with human SDF-1α, this substance had a Kd of 0.2 nM. For the same substance, the “reversal of SDF-1 effect on adhesion of Jurkat cells to fibronectin” value in series [1] is reported as “reverse this effect”. Also, in the series with SDF-1, the “inhibition of SDF-1 induced chemotaxis” value is “Inhibition”.
